Entries after “also recorded” stand apart in the source; their conditions may differ. Marks after values point to notes of the source that are not given here. Peptide text beside a SMILES is read from it.

For orientation: ED50 means the midpoint of the dose-response relation. In general, Km refers to the substrate concentration at which the rate is half of its maximum.

The test system of series [1] is C57/BL mice. The series is described as follows: Acute effects in the tail-flick test (Experiment 2). It counts as in vivo. Here is the method: (§1) Male C57/BL mice (IMP, Lodz, Poland), 22-24 g of body weight were group-housed in the standard laboratory cages and kept in a temperature-controlled colony room (21±2° C.) with a 12-hour light/dark cycle (light on: 07:00, off: 19:00). Commercial food and tap water were available ad libitum. Each experimental group consisted of 7-28 mice per treatment. All mice were used only once.
(§2) The intensity of the heat stimulus was adjusted so that the baseline tail-flick latency was ˜3 seconds. […] Each response assessment consisted of two separate measurements taken at different portions of the tail (spaced by 1.5-2 cm) and separated by 15 seconds. The mean of these responses was used for subsequent comparisons.
The N is given in brackets. Presented in FIG. 5 are mean±S.E.M. Area Under Curve (AUC) values calculated on the same data.
On the technique in general: Thermal pain tests record how soon the animal reacts.

Series [2] deals with C57/BL mice. Description: animal or person. It counts as in vivo. The settings on record: for ED50: Mus musculus, sc. As to the method: as §1, §2
For the next series, the system named is BB/W rats. Description: Retinal disorder (diabetic retinopathy) in BB/W rats: BM thickness and E/P ratio after 6 months of daily treatment. It counts as in vivo, rat. As to conditions: for BM THICKNESS (nm) ± SD: retinal capillaries. Here is the method:
Four groups of rats received daily insulin injections to maintain their glucose levels at about 350 mg/dl. Starting at the onset of hyperglycemia, NAALADase inhibitor 2-(3-sulfanylpropyl)-pentanedioic acid (Compound B) was administered daily for 6 months to one group of BB/W rats at a dose of 10 mg/kg and to a second group of BB/W rats at a dose of 30 mg/kg. A third group of BB/W rats and a fourth group of non-diabetic rats received daily vehicle treatment (50 mM Hepes buffered saline).
After 6 months of treatment with Compound B or vehicle treatment, the rats were sacrificed and their eyes were removed. From each rat, one eye was processed for elastase digest while the other eye was processed for transmission electron microscopy (TEM) and basement membrane (BM) thickness.
Retinal digests were prepared using elastase on retinas as described in Layer, N., Invest Ophthalmol Vis Sci (1993) 34:2097. Eyes were removed from recently killed BB/W rats (n=30) and age-matched transgenic controls (n=12). The retinas (n=12) were fixed at room temperature by immersing the whole eye (slit at limbus) in 4% (w/v) paraformaldehyde in 50 mmol/L Na—K phosphate buffer with 8% sucrose. The fixed retinas were rinsed in deionized water and were incubated for 3 minutes in a 37° C. agitating water bath in 40 units/mL elastase in Na—K phosphate buffer with 150 mmol/L NaCl and 5 mmol/L ethylenediamine tetraacetic acid (EDTA), pH 6.5. The tissues were washed overnight in 100 mmol/L Tris-HCL (pH 8.5) and then transferred to deionized water for removal of the loosened vitreous and digested neural elements by gentle agitation using the sides of closed forceps and the sides and ends of very fine brushes. After all loose tissues were removed, the retinas were incubated once more in fresh enzyme for 3 minutes and then subjected to a second overnight wash at room temperature in Tns-HCl buffer. On the third day, the retinas were again transferred to deionized water for additional removal of digested neural elements. The vascular network that was completely free of nonvascular elements was mounted flat by flotation in Ca^2+ and Mg^2+ free Dulbecco's Phosphate-Buffered Saline (PBS) on siliconized slides (#S1308, Oncor, Gaithersburg, Md.). After air drying in a dust free environment, the mounts of the retinal microvasculature were stained using periodic acid Schiff reaction and hematoxylin counterstaining, as described in Luna, L., ed. Manual of Histologic Staining Methods of the Armed Forces Institute of Pathology (1968) McGraw-Hill, New York, N.Y. The preparations were then examined by light microscopy and photographed.
The stained and intact retinal whole mounts were coded and counted, as described in Cuthbertson, R., Invest Ophthalmol Vis Sci. (1986) 27:1659-1664).
Ten fields at ×100 magnification were counted for endothelial and pericyte cells using previously described morphologic criteria (see Kuwabara, T., Arch Ophthalmol. (1960) 64:904-911). In every sample, at least 200 cells were counted from the mid zone of the retina. Mean values for endothelial cell/pericyte (E/P) ratios were initially calculated in 3 retinas from each of the 4 groups of rats.
Each eye was fixed in 4% glutaraldehyde and dissected free of sclera and choroids, then trimmed and postfixed in 1% osmium tetroxide. After dehydration and embedding, thin sections were stained with uranyl acetate and lead citrate. Initially, BM thickness of retinal capillaries from 3 non-diabetic rats receiving vehicle, 3 diabetic animals receiving 10 mg/kg Compound B, and 3 diabetic rats receiving 30 mg/kg Compound B were compared with 3 diabetic rats receiving a vehicle. At least 10 capillaries per eye from the inner nuclear and plexiform layers were photographed at a magnification of 10,000×. Exact magnification was determined for each set of negatives with a 28,800 line/inch calibration grid. Negatives were enlarged 3×. […]

The subject of series [3] is Brown Norway rats (Rattus norvegicus). The series is described as follows: Optic nerve transection in rats, optic nerve fiber counting. As to conditions: for Fiber Number / Percent Difference (fiber number, transected vs normal eye): 10 mg/kg i.p. daily. Type of series: in vivo. As to the method:
(§3) All experiments complied with the Association for Research in Vision and Ophthalmology Statement for the Use of Animals in Ophthalmic and Vision Research. 82 male Brown Norway rats (Rattus norvegicus), each weighing approximately 250 gm, were treated using procedures approved by the Animal Care Committee of the Johns Hopkins University School of Medicine. The rats were housed with a 12 hour light/12 hour dark cycle and fed ad libitum.
The optic nerve was transected unilaterally in 26 rats under intraperitoneal pentobarbital anesthesia. The conjunctiva was opened with scissors and the optic nerve was exposed by traction on extraocular muscles. The transection was performed with microscissors 5 mm posterior to the globe, with specific attention to avoidance of injury to major ocular blood vessels. Immediately after transection, the retina was examined ophthalmoscopically to assure that the retinal arterial blood supply was not disrupted. The conjunctiva was closed with absorbable suture and the eye dressed with antibiotic ointment. Beginning on the day of transection, the rats were treated daily with intraperitoneal injections of either a vehicle (9 rats with 50 mM HEPES-buffered saline) or a NAALADase inhibitor (8 rats with 10 mg/kg of Compound A and 9 rats with 10 mg/kg of Compound B). 5 saline treated rats, 3 Compound A treated rats and 4 Compound B treated rats were sacrificed at 2 weeks, and the remaining rats at 4 weeks, after transection.
(§4) The rats were sacrificed by exsanguination under deep pentobarbital anesthesia. They were perfused through the heart with 2% paraformaldehyde/2% glutaraldehyde in 0.1 M phosphate buffer, pH 7.2, and the eyes with attached optic nerves were removed. Cross-sections of the optic nerves from both experimental (glaucoma or transection) and control eyes was removed 1.5 mm posterior to the globe, 1 mm in thickness, and post-fixed in 2% osmium tetroxide in buffer. These were processed into epoxy resin, sectioned at 1 micron and stained with toluidine blue.
(§5) The area of each optic nerve cross-section was measured by outlining its outer border at 10× magnification on an image analysis system (Universal Imaging Corp., Westchester, Pa.) with Synsys digital camera and Metamorph software. Three area measurements were taken and the mean value was determined. To measure the density and fiber diameter distributions, images were captured with a 100× phase contrast objective from 10 different areas of each nerve. These were edited to eliminate non-neural objects and the size of each axon internal to the myelin sheath (its minimum diameter) and the density of axons/square mm were calculated for each image and nerve. The mean density was multiplied by total nerve area to yield fiber number for each nerve. The total fiber number in glaucoma or transection nerves was compared to the normal, fellow eye of each rat to yield a percent loss value. The number of axons counted among the 10 images was approximately 20% of the 80-90,000 axons in normal rat nerves. The person measuring the number of axons was masked to the protocol conducted on the nerves.
Percent Difference=mean percent difference in fiber number between glaucoma and normal eye in each rat (positive value indicates fewer fibers in the glaucoma eye).

Series [4] has the same test system. The series is described as follows: Experimental rat glaucoma (unilateral IOP elevation), optic nerve fiber counting. Type of series: in vivo. As to conditions: 10 mg/kg i.p. daily; for Fiber Number: glaucoma eye optic nerve; for Percent Difference (fiber number, glaucoma vs normal eye): positive value = fewer fibers in glaucoma eye. Here is the method: as §3
Unilateral elevation of intraocular pressure (“IOP”) was produced in 56 rats by microinjection of hypertonic saline into episcleral veins, following procedures described in Morrison, J. et al., IOVS (March 1998) 39:526-531. Beginning on the day of IOP elevation, the rats were treated daily with intraperitoneal injections of either a vehicle (23 rats with 50 mM HEPES-buffered saline) or a NAALADase inhibitor (11 rats with 10 mg/kg of Compound A and 22 rats with 10 mg/kg of Compound B). 11 saline treated rats, 11 Compound A treated rats and 11 Compound B treated rats were sacrificed at 8 weeks, and the remaining rats at 12 weeks, after initial IOP elevation.
as §4
as §5, with “the nerves. […]” for “the nerves.”

A further series relates to NAALADase. The settings on record: NAAG as substrate of NAALADase; cited from earlier work.
Where [5] appears, read: diabetic BB/W rats, 10 mg/kg daily for 6 months, 10 mg/kg.
The mark [6] stands for this setting: diabetic BB/W rats, 10 mg/kg daily for 6 months, listed as NAALADASE INHIBITOR, 10 mg/kg.
Setting [7] is: diabetic BB/W rats, 30 mg/kg daily for 6 months, 30 mg/kg.
The mark [8] stands for this setting: diabetic BB/W rats, 30 mg/kg daily for 6 months, listed as NAAALADASE INHIBITOR, 30 mg/kg.
Where [9] appears, read: high dose 30 mg/kg, vs diabetic vehicle.
Where [10] appears, read: low dose 10 mg/kg, vs diabetic vehicle.
[11] abbreviates: 2 weeks survival after transection.
[12] abbreviates: 4 weeks survival after transection.

Take `O=C(O)CCC(CP(=O)(O)O)C(=O)O` (stereo not drawn) [Compound 2-PMPA, 2-(phosphonomethyl)pentanedioic acid]: the “effect on antinociceptive effects of morphine” value in the series with C57/BL mice [1] (100 mg/kg 2-PMPA i.p. 30 min before 1.5 or 3 mg/kg morphine s.c.) was “did not affect antinociceptive effects; also recorded: did not differ”. In addition, the “tail-flick responses (AUC) compared to placebo+placebo treatment” value in the series on C57/BL mice [1] (100 mg/kg of 2-PMPA i.p. + placebo) is given as “did not affect tail-flick responses; also recorded: did not differ from placebo+placebo treatment”. Moreover, the “effect on development of morphine tolerance” value with C57/BL mice [2] (50 or 100 mg/kg of 2-PMPA prior to each dose of morphine) was “attenuated the development of morphine tolerance”.
Turning to `O=C(O)CCC(CCCS)C(=O)O` (stereo not drawn) [Compound B, 2-(3-sulfanylpropyl)pentanedioic acid], the “BM THICKNESS (nm) ± SD” value was found to be 82.3±4.07 nm in the series on BB/W rats (setting [5]), 82.3 ± 4.07 nm in the series with BB/W rats (setting [6]), 71.7±4.07 nm with BB/W rats (setting [7]) and 71.7 ± 4.07 nm in the series with BB/W rats (setting [8]). The “E/P RATIO (endothelial cell/pericyte)” value worked out at 2.5±0.5 in the series on BB/W rats (setting [5]), 2.5 ± 0.5 in the series on BB/W rats (setting [6]), 2.0±0.9 with BB/W rats (setting [7]) and 2.0 ± 0.4 in the series on BB/W rats (setting [8]). In the series with BB/W rats (diabetic BB/W rats, 6 months of treatment), the “effect on body weight” value is “no effect”. In the series with BB/W rats (setting [9]), the “reduction in BM thickness” value is recorded as 29.0%. The “reduction of endothelial cell to pericyte ratios” value in the series on BB/W rats (setting [9]) amounted to 33.0%; in the series on BB/W rats (setting [10]), 16.7%. Also, the “decrease in BM thickness” value with BB/W rats (setting [10]) was found to be 18.5%. The “remaining axons relative to saline-treated rats” value in series [3] (2 weeks after transection) was “twice”. Besides, the “Fiber Number” value in series [3] (setting [11]) is recorded as 19,550 ± 11,383; in series [3] (setting [12]), 5,162 ± 5,017; in series [4] (8 week group), 80785 ± 2121**; in series [4] (12 week group), 90504 ± 1718. For the same molecule, the results for the “Percent Difference (fiber number, transected vs normal eye)” value in series [3] (setting [11]) and in series [3] (setting [12]) were 75.3 ± 14.8% and 93.4 ± 6.2%, respectively. Moreover, the results for the “Percent Difference (fiber number, glaucoma vs normal eye)” value in series [4] (8 week group) and in series [4] (12 week group) were −0.82 ± 2.97% and −3.21 ± 2.86%, respectively.
As for `CC12CC3CC(C)(C1)CC(N)(C3)C2` [Memantine, memantine], the “effect on development of morphine tolerance” value in the series on C57/BL mice [2] (mouse, in vivo) was “attenuated the development of morphine tolerance; also recorded: produced an inhibition of morphine tolerance”.
For `CN1CC[C@]23c4c5ccc(O)c4O[C@H]2[C@@H](O)C=C[C@H]3[C@H]1C5` [Morphine, morphine], the ED50 is 3 mg/kg with C57/BL mice [1] (Mus musculus, sc, read-out: antinociceptive ED50 dose); 1.49 ± 0.26 mg/kg in the series with C57/BL mice [2] (24 h, read-out: Test #1 ED50 (morphine antinociceptive potency)); 8.85 ± 2.22 mg/kg in the series on C57/BL mice [2] (read-out: Test #2 ED50 (morphine antinociceptive potency)).
As to `CC(=O)N[C@@H](CC(=O)O)C(=O)N[C@@H](CCC(=O)O)C(=O)O` [NAAG, N-acetyl-aspartyl-glutamate] (Ac-Asp-Glu-OH), in the series with NAALADase, the Michaelis-Menten constant (Km) is 0.54 µM.

(Values after US7553866B2, “Thiolactones” (Eisai Corporation of North America, priority 2003, dated 2009).)
